Here are results for three compounds from paper PMC11876601 (Molecular Systems Biology, 2025).

Where two headings read alike, the source gives them in different places.

Assay [1] deals with TBK1. The settings on record: TBK1, 4 cell line mix lysate, Kinobeads y, ref Klaeger et al. (2017); cited from earlier work.
In assay [2] the test system is TBKBP1. The settings on record: TBKBP1, 4 cell line mix lysate, Kinobeads y, ref Klaeger et al. (2017), cited from earlier work.
The target of assay [3] is GAK. The settings on record: 4 cell line mix lysate, Kinobeads y, ref Klaeger et al. (2017), cited from earlier work.
Assay [4] concerns IKBKE. As to conditions: 4 cell line mix lysate, Kinobeads y, ref Klaeger et al. (2017); cited from earlier work.
Assay [5] concerns the target CSNK2B. The settings on record: 4 cell line mix lysate, Kinobeads y, ref Klaeger et al. (2017), cited from earlier work.
Assay [6] relates to CSNK2A1;CSNK2A3. As to conditions: CSNK2A1;CSNK2A3, 4 cell line mix lysate, Kinobeads y, ref Klaeger et al. (2017), cited from earlier work.
The test system of assay [7] is ADCK1. Also on record: method as in Klaeger et al. (2017). The settings on record: ADCK1, 4 cell line mix lysate, Kinobeads y, ref Klaeger et al. (2017), cited from earlier work.
Assay [8] concerns GRB2. On the set-up: method as in Klaeger et al. (2017). As to conditions: GRB2, 4 cell line mix lysate, Kinobeads y, ref Klaeger et al. (2017), cited from earlier work.
The test system of assay [9] is INPPL1. On the set-up: method as in Klaeger et al. (2017). The settings on record: INPPL1, 4 cell line mix lysate, Kinobeads y, ref Klaeger et al. (2017), cited from earlier work.
Assay [10] deals with EPHB6. On the set-up: method as in Klaeger et al. (2017). As to conditions: EPHB6, 4 cell line mix lysate, Kinobeads y, ref Klaeger et al. (2017), cited from earlier work.
The test system of assay [11] is ABL1. As to conditions: ABL1, 4 cell line mix lysate, Kinobeads y, ref Klaeger et al. (2017); cited from earlier work.
The target in assay [12] is EIF3J. As to conditions: 4 cell line mix lysate, Kinobeads y, ref Klaeger et al. (2017), cited from earlier work.
The target in assay [13] is TANK. As to conditions: 4 cell line mix lysate, Kinobeads y, ref Klaeger et al. (2017), cited from earlier work.
Assay [14] concerns WEE1. As to conditions: WEE1, 4 cell line mix lysate, Kinobeads y, ref Klaeger et al. (2017); cited from earlier work.
Assay [15] deals with NEK3. Also on record: method as in Klaeger et al. (2017). As to conditions: NEK3, 4 cell line mix lysate, Kinobeads y, ref Klaeger et al. (2017), cited from earlier work.
Assay [16] has as its system MAP3K4. As to conditions: cited from earlier work; for Kd: read-out: KDapp.
Assay [17] concerns CSNK2A2. As to conditions: CSNK2A2, 4 cell line mix lysate, Kinobeads y, ref Klaeger et al. (2017), cited from earlier work.
The target of assay [18] is ADK. The settings on record: 4 cell line mix lysate, Kinobeads y, ref Klaeger et al. (2017), cited from earlier work.
Assay [19] deals with AZI2. The settings on record: AZI2, 4 cell line mix lysate, Kinobeads y, ref Klaeger et al. (2017), cited from earlier work.
In assay [20] the target is BCR. As to conditions: 4 cell line mix lysate, Kinobeads y, ref Klaeger et al. (2017), cited from earlier work.
Assay [21] has as its system 13 PDAC cell lines. Nature of the assay: Phenotypic drug combination viability screen (ATPlite, 72 h), cell line panel. Format: cell-based, human. As to conditions: of 13 cell lines; Bliss model. How it is done: Cell viability was assessed by measuring ATP levels to indicate metabolic activity.
Afterward, small amounts were transferred to 384-well intermediate plates (Greiner Bio-One GmbH, Germany). […] For drug combination screening, 1000 to 5000 cells were seeded into 384-well plates (CulturPlate™, Perkin Elmer, MA, USA) using a Multidrop™ Combi Reagent Dispenser (Thermo Scientific, MA, USA) in 50 µl medium per well 24 h prior to drug treatment (seeding densities see Appendix Table S1). […] The final DMSO concentration in each well was 0.2%. […] Eight wells per plate without library drug served as negative controls, and sixteen wells per plate containing 5 µM Staurosporine served as positive controls. Control plates not containing any drug were used to correct for incubation effects, and data quality was assessed by calculation of Z-prime of positive and negative controls according to1 Z-prime=1−3SDpos+3SDneg/[…] where SD is the standard deviation. […] Dose–response curves from the experimental and hypothetical data were compared, and shifts in AUC were used to describe combination effects (AUC∆ = AUChypothetical − AUCexperimental). […] Only combinations with R^2 > 0.8 in both conditions were considered in the synergy analysis.
For orientation: In ATP-based viability assays light output follows the ATP content of the culture.

Assay [22] has as its system 30 PDAC cell lines. The settings on record: ref Jaaks et al, 2022; cited from earlier work.
The test system of assay [23] is MiaPaCa-2. Nature of the assay: cells. On the set-up: ATPlite luminescence viability of PDAC cell lines, 11-dose single-agent curves, 4-parameter fit. As to conditions: Homo sapiens, MIA PaCa-2, 72 h, read-out: EC50 [nM]. Summed up:
(§1)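 cells (1000 to 5000 per well) seeded 24 h before drug addition in a combination screen at 0.2% final DMSO. Controls were drug-free wells (negative) and 5 µM staurosporine (positive).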

Assay [24] relates to FAMPAC. Briefly: cells. On the set-up: ATPlite luminescence viability of PDAC cell lines, 11-dose single-agent curves, 4-parameter fit. As to conditions: 72 h, read-out: EC50 [nM]. The gist of the method: as §1
For assay [25], the system named is PSN-1. Briefly: cells. Also on record: ATPlite luminescence viability of PDAC cell lines, 11-dose single-agent curves, 4-parameter fit. The settings on record: Homo sapiens, PSN1, 72 h, read-out: EC50 [nM]. Summed up: as §1
Assay [26] relates to PaTu-8988-T. Briefly: cells. As to conditions: Homo sapiens, PaTu 8988t, 72 h, read-out: EC50 [nM]. Also on record: ATPlite luminescence viability of PDAC cell lines, 11-dose single-agent curves, 4-parameter fit. The gist of the method:
as §1

Assay [27] has as its system HuP-T4. Briefly: cells. Also on record: ATPlite luminescence viability of PDAC cell lines, 11-dose single-agent curves, 4-parameter fit. The settings on record: Homo sapiens, HuP-T4, 72 h, read-out: EC50 [nM]. Summed up: as §1
Assay [28] has as its system Dan-G. Nature of the assay: cells. On the set-up: ATPlite luminescence viability of PDAC cell lines, 11-dose single-agent curves, 4-parameter fit. The settings on record: 72 h, read-out: EC50 [nM]. Summed up:
as §1

The subject of assay [29] is Suit2-07. Nature of the assay: cells. Also on record: ATPlite luminescence viability of PDAC cell lines, 11-dose single-agent curves, 4-parameter fit. The settings on record: 72 h, read-out: EC50 [nM]. Summed up: as §1
Assay [30] concerns HPDE. Briefly: cells. As to conditions: HPDE, 72 h, read-out: EC50 [nM]. Also on record: ATPlite luminescence viability of PDAC cell lines, 11-dose single-agent curves, 4-parameter fit. Summed up: as §1
Assay [31] relates to Capan-1. Briefly: cells. On the set-up: ATPlite luminescence viability of PDAC cell lines, 11-dose single-agent curves, 4-parameter fit. As to conditions: Homo sapiens, CAPAN-1, 72 h, read-out: EC50 [nM]. The gist of the method:
as §1

Assay [32] relates to Colo-357. Nature of the assay: cells. Also on record: ATPlite luminescence viability of PDAC cell lines, 11-dose single-agent curves, 4-parameter fit. The settings on record: Homo sapiens, COLO357, 72 h, read-out: EC50 [nM]. The gist of the method:
as §1

Assay [33] relates to AsPC-1. Briefly: cells. As to conditions: Homo sapiens, ASPC1, 72 h, read-out: EC50 [nM]. Also on record: ATPlite luminescence viability of PDAC cell lines, 11-dose single-agent curves, 4-parameter fit. Summed up:
as §1

Setting [34] is: MAP3K4, 4 cell line mix lysate, Kinobeads y, ref Klaeger et al. (2017).

As a reminder, the EC50 is the midpoint of the concentration-response curve. For the compound `C=CCn1c(=O)c2cnc(Nc3ccc(N4CCN(C)CC4)cc3)nc2n1-c1cccc(C(C)(C)O)n1` [Adavosertib (MK-1775)], the EC50 was […] in assay [1]; 2180 nM in [2]; 745 nM in assay [3]; […] in [4]; […] in assay [5]; 627 nM in [6]. For the same compound, the EC50 in assay [7] is 3.05 µM; in assay [8], 2710 nM; in assay [9], 1470 nM; in assay [10], 549 nM; in assay [11], 6.34 µM; in [12], 500 nM. For the same compound, the EC50 in [13] was 2870 nM; in assay [14] it was […]; in [15] it was 980 nM; in [16] (setting [34]) it was 77.5 nM; in assay [17] it was 428 nM; in assay [18], 12.6 nM. Besides, the EC50 in assay [19] was […]; in assay [20], 3.99 µM. Further, the pKDapp was […] in assay [2]; […] in [3]; […] in assay [5]; 6.20 in assay [6]; […] in assay [7]; […] in assay [8]. Also, the pKDapp was 6.15 in assay [9]; 6.47 in assay [10]; 6.30 in [12]; […] in assay [13]; 6.08 in assay [15]; 7.28 in [16] (setting [34]). Further, the pKDapp in assay [17] is […]; in [18], 7.90; in assay [19], 5.91; in [20], […]. The Kd is […] in assay [2] (read-out: KDapp); […] in [3] (read-out: KDapp); […] in assay [5] (read-out: KDapp); 627 nM in assay [6] (read-out: KDapp); […] in assay [7] (read-out: KDapp); […] in assay [8] (read-out: KDapp). For the same compound, the Kd in assay [9] (read-out: KDapp) is 712 nM; in [10] (read-out: KDapp), 337 nM; in [12] (read-out: KDapp), 500 nM; in assay [13] (read-out: KDapp), […]; in [15] (read-out: KDapp) it was 837 nM; in assay [16] (setting [34]), 52 nM. Besides, the Kd was […] in assay [17] (read-out: KDapp), 12.6 nM in assay [18] (read-out: KDapp), 1230 nM in assay [19] (read-out: KDapp) and […] in [20] (read-out: KDapp).
Consider `C=CCn1c(=O)c2cnc(Nc3ccc(N4CCN(C)CC4)cc3)nc2n1-c1cccc(C(C)(C)O)n1` [Adavosertib], for which the “number of cell lines with synergy with GEM” value in [21] stood at […]. Also, in assay [22], the “synergy with GEM” value is “to a lesser extent”. Moreover, the Kd in assay [16] (Kinobeads, ref Klaeger et al, 2017a, Reinecke et al, 2023a) was 52 nM. Besides, the EC50 in [23] worked out at 244 nM; in assay [24], 268 nM; in assay [25] it was 464 nM; in [26], 154 nM; in assay [27], 5570 nM; in assay [28], 147 nM. Also, the EC50 was 206 nM in assay [29]; 946 nM in assay [30]; 327 nM in assay [31]; 135 nM in assay [32]; 171 nM in assay [33].
In the case of `NC(=O)Nc1cc(-c2cccc(F)c2)sc1C(=O)N[C@H]1CCCNC1` [AZD7762], the “synergy with GEM” value in [22] is listed as “nearly half of the cell lines”.
